# Values of other authors as cited in US6110955A, “Metabolically stabilized oxyalkylene esters and uses thereof” (Beacon Laboratories, Inc., priority 1997, dated 2000).
# Tests used:
# [1] = tested on: human colon carcinoma, leukemia and retinoblastoma cell lines; details: in vitro; cited from earlier work
# [2] = tested on: mitochondrial β-oxidation of fatty acids; details: cited from earlier work
# [3] = tested on: primary and immortalized cell lines; details: cited from earlier work
# B16 melanoma = details: cited from earlier work
# cancer patients = details: clinical trials; cited from earlier work
# nuclear deacetylase(s) = details: cited from earlier work
structure (smiles),measurement,setting,value
"CCCC(=O)[O-].[Na+] [SB, sodium butyrate]",apoptosis,[1],"produce apoptosis in vitro in human colon carcinoma, leukemia and retinoblastoma cell lines"
CN(C)C1C(=O)C(C(N)=O)=C(O)C2(O)C(=O)C3=C(O)c4c(O)cccc4C(C)(O)C3CC12 (stereo not shown) [tetracycline],mitochondrial β-oxidation of fatty acids,[2],decrease mitochondrial β-oxidation of fatty acids
CCCC(=O)OCC(COC(=O)CCC)OC(=O)CCC [Tributyrin],expression of a reporter gene,[3],enhance the expression of a reporter gene in primary and immortalized cell lines
O=C(O)CCCCCCNC1c2ccccc2CCc2ccccc21 [aminetepine],mitochondrial β-oxidation of fatty acids,[2],decrease mitochondrial β-oxidation of fatty acids
"CCCC(=O)O [BA, Butyric acid]",oncogene expression,B16 melanoma,decrease in the expression of c-myc and H-ras oncogenes in B16 melanoma
same,efficacy in cancer patients,cancer patients,minimal or transient efficacy
same,effect on nuclear deacetylase(s),nuclear deacetylase(s),"inhibition of nuclear deacetylase(s), resulting in hyperacetylation of histones H3 and H4"
